The text below walks through data of patent US20060270862A1, “Analogs of discodermolide and dictyostatin-1, intermediates therefor and methods of synthesis thereof” (priority 2002, published 2006).

The test system of one experiment is tubulin. The experiment is classed as biochemical, bovine. The conditions noted are these: for MT stabilizing activity (%): tubulin assembly induced by test agent at 10 μM vs. 10 μM paclitaxel (100%), single determinations at 30° C. How it is done:
(§1) General. Tubulin without microtubule-associated proteins was prepared from fresh bovine brains[32] The normoisotopic and tritiated forms of paclitaxel and normoisotopic docetaxel were provided by the Drug Synthesis and Chemistry Branch, National Cancer Institute. (+)-Discodermolide was from Novartis Pharmaceutical Corporation. Ca^2+- and Mg^2+-free RPMI-1640 culture medium were from GIBCO/BRL-Life Technologies. Fetal bovine serum (FBS) was from Hyclone. Cell lines were obtained from American Type Culture Collection (Manassas, Va.).
Tubulin Polymerization[32] Tubulin assembly was followed in a Beckman-Coulter 7400 spectrophotometer, equipped with an electronic Peltier temperature controller, reading absorbance (turbidity) at 350 nm. Reaction mixtures (0.25 mL final volume) contained tubulin (final concentration 10 μM; 1 mg/mL), monosodium glutamate (0.8 M from a stock solution adjusted to pH 6.6 with HCl), DMSO (final volume 4% v/v), and differing concentrations of test agent where indicated. Reaction mixtures without test agent were cooled to 0° C. and added to cuvettes held at 0.25-0.5° C. in the spectrophotometer. Test agent in DMSO was then rapidly mixed in the reaction mixture. Each run contained one positive control (paclitaxel, 10 μM final concentration) and one negative control (DMSO only). Baselines were established at 0.25-2.5° C. and temperature was rapidly raised to 30° C. (in approximately 1 min) and held there for 20 min.

A further experiment has as its system MDA-MB231 (breast). The experiment in a line: Cell growth inhibition (MTS), MDA-MB231. The format is cell-based, human. The conditions noted are these: Homo sapiens. As for the experimental part:
(§2) Cell Growth Inhibition[34] Cells were plated (500-2000 cells/well depending on the cell line) in 96-well microplates, allowed to attach and grow for 48 h, then treated with vehicle (4% DMSO, a concentration that allowed doubling times of 24 h or less) or test agent (50, 10, 2, 0.4 and 0.08 μM for the new agents; 0.001, 0.005, 0.010, 0.020 and 0.100 μM for paclitaxel and discodermolide) for the given times. One plate consisted of cells from each line used for a time zero cell number determination. The other plates in a given determination contained eight wells of control cells, eight wells of medium and each agent concentration tested in quadruplicate. Cell numbers were obtained spectrophotometrically (absorbance at 490 nm minus that at 630 nm) in a Dynamax plate reader after treatment with 3-(4,5-dimethylthiazol-2-yl)-5-(3-carboxymethoxyphenyl)-2-(4-sulfophenyl)-2H-tetrazolium (MTS) using phenazine methanesulfonate as the electron acceptor. After initial screening with the above 5-fold dilutions, fifty percent growth inhibitory concentration (GI50) values were determined for each agent by repeating the screen using 2-fold dilutions (five concentrations) centered on the initial estimated GI50 concentration, again in quadruplicate.

A further experiment concerns PC3 (prostate). Description: Cell growth inhibition (MTS), PC3. The format is cell-based. The conditions noted are these: Homo sapiens, read-out: GI50 PC3 (prostate). How it is done:
as §2

In the next experiment the test system is 2008 (ovarian). Description: Cell growth inhibition (MTS), 2008. The conditions noted are these: Homo sapiens. The format is cell-based, human. How it is done:
as §2

Experiment [1] concerns paclitaxel binding site on tubulin. The experiment in a line: Paclitaxel binding site inhibition assay ([3H]paclitaxel displacement from microtubules). To be noted: 4 μM test agent, 2 μM [3H]paclitaxel, microtubules from 2 μM tubulin and 20 μM dideoxyGTP. More on the design: species or system bovine. As for the experimental part:
as §1
Paclitaxel binding site inhibition assay. A stock solution of [^3H]paclitaxel (26.8 μM, 16.2 Ci/mmol), obtained from the NCI, was prepared in 37% (v/v) DMSO. The test agents were prepared in 25% (v/v) DMSO-0.75 M monosodium glutamate (prepared from a 2M stock solution adjusted to pH 6.6 with HCl). The radiolabeled paclitaxel and test agents, as indicated in terms of final concentrations, were mixed in equal volumes and warmed to 37° C. A reaction mixture (50 μL) containing 0.75 M monosodium glutamate, 4.0 μM tubulin, and 40 μM ddGTP (a non-hydrolyzable analog of GTP) was prepared and incubated at 37° C. for 30 min to preform microtubules. An equivalent volume of drug mixture with [^3H]paclitaxel was added to preformed polymer and incubated for 30 min at 37° C. Bound [^3H]paclitaxel was separated from free drug by centrifugation of the reaction mixtures at 14000 rpm for 20 min at room temperature. Non-specific binding was determined by addition of a 12-fold excess of docetaxel. Radioactive counts from the supernatant (50 μL) were determined by scintillation spectrometry. Bound [^3H]paclitaxel was calculated from the following: total paclitaxel added to each reaction mixture minus the paclitaxel present in the supernatant (free drug). The % bound values were normalized to the control values with no inhibitor added.

Setting [2] is: MDA-MB-231, 72 h, read-out: GI50 MDA-MB231 (breast).
Where [3] appears, read: 72 h, read-out: GI50 2008 (ovarian).

Read-outs that look alike come from different tables or passages of the source. A value given as a limit tells only on which side of the number the result lay.

For the molecule `C=C/C=C\[C@H](C)[C@H](OC(N)=O)[C@@H](C)[C@H](O)[C@@H](C)C/C(C)=C\[C@H](C)[C@@H](O)[C@@H](C)/C=C\[C@@H](O)C[C@@H]1OC(=O)[C@H](C)[C@@H](O)[C@H]1C` [discodermolide, (+)-discodermolide], the “microtubule assembly compared with paclitaxel (in words)” value in the experiment with tubulin (FIG. 6A, equivalent assembly at lower concentrations and temperatures) was “superior to paclitaxel”. The “properties of the induced polymer: speed of induction, resistance to cold-induced disassembly (in words)” value in the experiment with tubulin (FIGS. 6A, 6C, 6D, analogs at somewhat lower potencies than discodermolide) is listed as “more resistant to cold-induced disassembly”. For the same molecule, the “MT stabilizing activity (%)” value with tubulin is above 100%. The GI50 – broadly, the concentration that inhibits growth by half – with MDA-MB231 (breast) (setting [2]) was determined as 16 ± 3 nM; with MDA-MB231 (breast) (MDA-MB-231, 72 h, read-out: GI50 MDA-MB-231 (breast)), 16 ± 3 nM; with PC3 (prostate) (72 h), 67 ± 4 nM; in the experiment with 2008 (ovarian) (setting [3]) it was 72 ± 5 nM; with 2008 (ovarian) (72 h, read-out: GI50 2008 (ovary)) it was 72 ± 5 nM. Besides, the “Displacement of [3H]paclitaxel (%)” value is 64 ± 2% in experiment [1] and 64 ± 2% in experiment [1] (N = 6, means ± SD).

As for `CC(=O)O[C@H]1C(=O)[C@@]2(C)[C@H]([C@H](OC(=O)c3ccccc3)[C@]3(O)C[C@H](OC(=O)[C@H](O)[C@@H](NC(=O)c4ccccc4)c4ccccc4)C(C)=C1C3(C)C)[C@]1(OC(C)=O)CO[C@@H]1C[C@@H]2O` [paclitaxel, reference compound], the “MT stabilizing activity (%)” value with tubulin came to 100%. The concentration for 50% growth inhibition (GI50) in the experiment with MDA-MB231 (breast) (MDA-MB-231, 72 h continuous exposure, mean ± SD, N = 4, read-out: GI50 MDA-MB231 (breast)) came out at 2.4 ± 1.6 nM; with PC3 (prostate) (72 h continuous exposure, mean ± SD, N = 4), 15 ± 2 nM; with 2008 (ovarian) (72 h continuous exposure, mean ± SD, N = 4, read-out: GI50 2008 (ovarian)), 9.2 ± 1.6 nM. Also, the “Displacement of [3H]paclitaxel (%)” value in experiment [1] was 37 ± 1%.

In the case of `C=C/C=C\[C@H](C)[C@H](OC(N)=O)[C@@H](C)[C@H](O)CC/C=C\[C@H](C)[C@H](O)[C@@H](C)/C=C\CC[C@@H]1OC(=O)[C@H](C)[C@@H](O)[C@@H]1C` [Compound 40, Carbamic acid, (1S,2S,3R,6Z,8S,9S,10S,11Z)-3,9-dihydroxy-14-[(2S,3S,4S,5R)-4-hydroxy-3,5-dimethyl-6-oxotetrahydropyran-2-yl]-2,8,10-trimethyl-1-[(1S,2Z)-1-methylpenta-2,4-dienyl]tetradeca-6,11-dienyl ester], the “MT stabilizing activity (%)” value with tubulin came out at 11%. For the same molecule, the values for the GI50 in the experiment with MDA-MB231 (breast) (setting [2]), in the experiment on PC3 (prostate) (72 h) and in the experiment with 2008 (ovarian) (setting [3]) were 2100 ± 1800 nM, 7500 ± 2000 nM and 5200 ± 1000 nM, respectively. Further, the “Displacement of [3H]paclitaxel (%)” value in experiment [1] is listed as 21 ± 1%.
